Data as given in patent US20110015248A1, “SUBSTITUTED HETEROCYCLES” (INTERMED DISCOVERY GMBH, priority 2003, published 2011).

Biological target: T1, Human red blood cell S20 proteasome (Homo sapiens, UniProt P28074)
T1 construct: host or cells: human red blood cells (native tissue preparation)
Test: Proteasome inhibition assay
Format: biochemical
Details: not given
Experimental: The test compound is diluted at various concentrations in 2.5% DMSO in a polypropylene 96 well plate. […] The diluted working solution (10 μl/well) is transferred into a polypropylene 96 well plate. The assay buffer consists of 50 mM Tris-HCl (pH 8.0), 0.5 mM EDTA, 0.005% TritonX-100, 0.005% SDS, prepared as a stock solution at 10× concentration. The peptide substrate (Suc-Leu-Leu-Val-Tyr-MCA; 3120v; Peptide Institute; Osaka, Japan) is stored at 10 mM in 100% DMSO. […] The compound and the substrate are preincubated for 10 min at room temperature. Then the mixture of the compound and the substrate (10 μl/well) is transferred to a black non-coated 384 well assay plate (Nunc) and autofluorescence emission is measured at 460 nm (λex, 360 nm) by using a ARVO fluorescence plate leader (Perkin Elmer, Tokyo, Japan).
Human red blood cell S20 proteasome are obtained from Affinity research products Ltd (Cat#PW8720; Exeter, UK) and stored at −80° C. The proteasome is diluted 1 in 1000 with 1× concentration of the assay buffer and 10 μl is added to the substrates and the inhibitor mixture in the plate. The proteolytic reaction is performed at room temperature. The fluorescence emission is continuously measured for 90 min. IC50 values of the compounds are determined at initial velocity of the reaction.

Compound | IC50
CCCCCC[C@H]1C(=O)N[C@@]2([C@@H](O)[C@@H]3C=CCCC3)C(=O)O[C@@]12C [Example 1, (1R,4R,5S)-1-[(S)-(1S)-2-cyclohexen-1-yl(hydroxy)methyl]-4-hexyl-5-methyl-6-oxa-2-aza-bicyclo[3.2.0]heptane-3,7-dione] | 1 nM
CCCCCC[C@H]1C(=O)N[C@](C(=O)SCCC(=O)OC)([C@@H](O)[C@@H]2C=CCCC2)[C@@]1(C)O [Example 12, 3-[2-(Cyclohex-2-enyl-hydroxy-methyl)-4-hexyl-3-hydroxy-3-methyl-5-oxo-pyrrolidine-2-carbonylsulfanyl]-propionic acid methyl ester] | 0.2 nM

Same assay, conditions: substrate Suc-Leu-Leu-Val-Tyr-MCA; room temperature; IC50 determined at initial velocity of the reaction; read-out: IC50

Compound | IC50
CCCCCC(O)[C@H]1C(=O)N[C@](C(=O)O)(C(O)[C@@H]2C=CCCC2)[C@@]1(C)O (stereo partly drawn) [Example 4, (3S,4R)-2-[(S)-(1S)-2-cyclohexen-1-yl(hydroxy)methyl]-3-hydroxy-4-[1-hydroxy-hexyl]-3-methyl-5-oxo-D-proline] | 305 nM
CCCCCC[C@H]1C(=O)N[C@](C(=O)SCc2ccccc2)([C@@H](O)C2CCCCC2)[C@@]1(C)O [Example 17, 2-(Cyclohexyl-hydroxy-methyl)-4-hexyl-3-hydroxy-3-methyl-5-oxo-pyrrolidine-2-carbothioic acid S-benzyl ester] | 106 nM

Test system: not given
Test: not given
Details: not given

Compound | melting point
CCCCCC(O)[C@H]1C(=O)N[C@@]2(C(O)[C@@H]3C=CCCC3)C(=O)O[C@@]12C (stereo partly drawn) | 144 °C
CCCCCC[C@H]1C(=O)N[C@](C(=O)SCc2ccccc2)([C@@H](O)[C@@H]2C=CCCC2)[C@@]1(C)O (stereo in doubt) | 138 °C
CCCCCC[C@H]1C(=O)N[C@](C(=O)SCCNC(C)=O)([C@@H](O)[C@@H]2C=CCCC2)[C@@]1(C)O (stereo in doubt) | 82 °C
CCCCCC[C@H]1C(=O)N[C@](C(=O)SC2CCCCC2)([C@@H](O)[C@@H]2C=CCCC2)[C@@]1(C)O (stereo in doubt) | 85 °C
CCCCCC(O)[C@H]1C(=O)N[C@](C(=O)SCCNC(C)=O)([C@@H](O)[C@@H]2C=CCCC2)[C@@]1(C)O (stereo in doubt) | 80 °C
CCCCCC(O)[C@H]1C(=O)N[C@](C(=O)SCC(=O)OC)([C@@H](O)[C@@H]2C=CCCC2)[C@@]1(C)O (stereo in doubt) | 75 °C
CCCCCC[C@H]1C(=O)N[C@](C(=O)SCCC(=O)OC)([C@@H](O)C2CCCCC2)[C@@]1(C)O (stereo in doubt) | 132 °C
CCCCCC[C@H]1C(=O)N[C@@]2([C@@H](O)C3CCCCC3)C(=O)O[C@@]12C (stereo in doubt) | 167 °C
CCCCCC(O)[C@H]1C(=O)N[C@](C(=O)SCc2ccccc2)([C@@H](O)[C@@H]2C=CCCC2)[C@@]1(C)O (stereo in doubt) [Example 14, 2-(Cyclohex-2-enyl-hydroxy-methyl)-3-hydroxy-4-(1-hydroxy-hexyl)-3-methyl-5-oxo-pyrrolidine-2-carbothioic acid S-benzyl ester] | 123 °C
CCCCCC[C@H]1C(=O)N[C@](C(=O)SCCC(=O)OC)([C@@H](O)[C@@H]2C=CCCC2)[C@@]1(C)O [Example 12, 3-[2-(Cyclohex-2-enyl-hydroxy-methyl)-4-hexyl-3-hydroxy-3-methyl-5-oxo-pyrrolidine-2-carbonylsulfanyl]-propionic acid methyl ester] | 64 °C
CCCCCC[C@H]1C(=O)N[C@](C(=O)SCc2ccccc2)([C@@H](O)C2CCCCC2)[C@@]1(C)O [Example 17, 2-(Cyclohexyl-hydroxy-methyl)-4-hexyl-3-hydroxy-3-methyl-5-oxo-pyrrolidine-2-carbothioic acid S-benzyl ester] | 181 °C
